According to the supplement of paper PMC12592484:

How the values were obtained:
Experiment in all cases: drug sensitivity score (DSS2, normalised partial AUC of dose-response, 72 h CellTiter-Glo viability) (DSS (dimensionless)); higher = more sensitive (stronger growth inhibition / cytotoxicity); extreme values may be limits of the assay
CAF#3 = test system: CAF#3 (primary prostate cancer-associated fibroblasts of myCAF-like type)
Procedure, shortened: (§1)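 Low-passage primary prostate cancer-associated fibroblasts, PF179T, WPMY-1, LNCaP and 22Rv1 cells were seeded into 384-well plates carrying pre-dispensed compounds at five doses covering a 10,000-fold range. After 72 h, viability was read by CellTiter-Glo 2.0 luminescence. Responses were scaled to vehicle and positive-control wells. The drug sensitivity score (DSS2) is a partial area under the fitted logistic dose–response curve divided by the log of its upper asymptote, computed in BREEZE; higher means more sensitive.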

CAF#1 = test system: CAF#1 (primary prostate cancer-associated fibroblasts of myCAF-like type)
Procedure, shortened: as §1

CAF#7 = test system: CAF#7 (primary prostate cancer-associated fibroblasts of myCAF-like type)
Procedure, shortened: as §1

LNCAP = test system: LNCAP
Procedure, shortened: as §1

CAF#4 = test system: CAF#4 (primary prostate cancer-associated fibroblasts of iCAF-like type)
Procedure, shortened: as §1

CAF#5 = test system: CAF#5 (primary prostate cancer-associated fibroblasts of myCAF-like type)
Procedure, shortened: as §1

22Rv1 = test system: 22Rv1
Procedure, shortened: as §1

PF179T = test system: PF179T
Procedure, shortened: as §1

CAF#2 = test system: CAF#2 (primary prostate cancer-associated fibroblasts of iCAF-like type)
Procedure, shortened: as §1

CAF#6 = test system: CAF#6 (primary prostate cancer-associated fibroblasts of iCAF-like type)
Procedure, shortened: as §1

WPMY-1 = test system: WPMY-1
Procedure, shortened: as §1

| Compound | drug sensitivity score (CAF#3) | drug sensitivity score (CAF#1) | drug sensitivity score (CAF#7) | drug sensitivity score (LNCAP) | drug sensitivity score (CAF#4) | drug sensitivity score (CAF#5) | drug sensitivity score (22Rv1) | drug sensitivity score (PF179T) | drug sensitivity score (CAF#2) | drug sensitivity score (CAF#6) | drug sensitivity score (WPMY-1) |
| --- | --- | --- | --- | --- | --- | --- | --- | --- | --- | --- | --- |
| COc1cc(Nc2c(C#N)cnc3cc(OCCCN4CCN(C)CC4)c(OC)cc23)c(Cl)cc1Cl [Bosutinib] (tested concentration range 1-10000 nM) | 6.6 | 7.4 | 4.1 | 10.1 | 5.8 | 6.2 | 7.7 | 4.8 | 8.5 | 5.1 | 9.2 |
| COc1cc(N2CCC(N3CCN(C)CC3)CC2)ccc1Nc1ncc(Cl)c(Nc2ccccc2P(C)(C)=O)n1 [Brigatinib] (tested concentration range 0.1-1000 nM) | 3.1 | 4 | 3 | 0 | 2.1 | 3.6 | 1.7 | 2.2 | 3.5 | 3.9 | 2.4 |
| Cc1cc2c(F)c(Oc3ncnn4cc(OC[C@@H](C)O)c(C)c34)ccc2[nH]1 [Brivanib] (tested concentration range 0.1-1000 nM) | 0 | 0 | 0 | 1.2 | 0 | 0 | 0 | 0 | 0 | 0 | 0 |
| CCC/C=C/C=C/C(=O)O[C@H]1/C(=C/C(=O)OC)C[C@H]2C[C@H]([C@@H](C)O)OC(=O)C[C@H](O)C[C@@H]3C[C@H](OC(C)=O)C(C)(C)[C@](O)(C[C@@H]4C/C(=C/C(=O)OC)C[C@H](/C=C/C(C)(C)[C@]1(O)O2)O4)O3 [Bryostatin 1] (tested concentration range 0-100 nM) | 0.6 | 4.2 | 4 | 0.1 | 0.5 | 3 | 0 | 0 | 3.4 | 2.6 | 1.3 |
| Cc1noc2c1-c1ccccc1C(c1ccc(Cl)cc1)=N[C@H]2CC(N)=O [CPI-0610] (tested concentration range 1-10000 nM) | 8.4 | 7 | 1.8 | 13 | 1.4 | 4.1 | 9.2 | 4.1 | 6.5 | 4.5 | 7.9 |
| CO[C@H]1C(=O)[C@]2(C)[C@@H](OC)C[C@H]3OC[C@@]3(OC(C)=O)[C@H]2[C@H](OC(=O)c2ccccc2)[C@]2(O)C[C@H](OC(=O)[C@H](O)[C@@H](NC(=O)OC(C)(C)C)c3ccccc3)C(C)=C1C2(C)C [Cabazitaxel] (tested concentration range 0.1-1000 nM) | 14.2 | 14.6 | 26.4 | 35.6 | 13 | 15.8 | 26.5 | 22.2 | 18.1 | 18.4 | 28.2 |
| COc1cc2nccc(Oc3ccc(NC(=O)C4(C(=O)Nc5ccc(F)cc5)CC4)cc3)c2cc1OC [Cabozantinib] (tested concentration range 0.1-1000 nM) | 5.4 | 4.6 | 5.6 | 7.1 | 3.9 | 7.4 | 0.3 | 4.1 | 7.9 | 3.7 | 3.8 |
| CCCCCOC(=O)Nc1nc(=O)n([C@@H]2O[C@H](C)[C@@H](O)[C@H]2O)cc1F [Capecitabine] (tested concentration range 1-10000 nM) | 0 | 0 | 0 | 0 | 0 | 0 | 0 | 0 | 0 | 0 | 0 |
| NC1(C(=O)N[C@@H](CCO)c2ccc(Cl)cc2)CCN(c2nc[nH]c3nccc2-3)CC1 [Capivasertib] (tested concentration range 1-10000 nM) | 0 | 4.5 | 2.4 | 23.5 | 0.3 | 3.6 | 7.2 | 4.6 | 4.1 | 2.7 | 3 |
| CNC(=O)c1ccc(-c2cnc3ncc(Cc4ccc5ncccc5c4)n3n2)cc1F [Capmatinib] (tested concentration range 0.1-1000 nM) | 0 | 0 | 0 | 0 | 0 | 0 | 0 | 0.4 | 3.1 | 0 | 0.1 |
| O=C(O)C1(C(=O)O)CCC1.[NH2-].[NH2-].[Pt+2] [Carboplatin] (tested concentration range 10-100000 nM) | 2.8 | 4.8 | 0.4 | 5.5 | 5.5 | 5.5 | 6.7 | 6 | 8.3 | 1.6 | 7.7 |
| CC(C)C[C@H](NC(=O)[C@H](CCc1ccccc1)NC(=O)CN1CCOCC1)C(=O)N[C@@H](Cc1ccccc1)C(=O)N[C@@H](CC(C)C)C(=O)[C@@]1(C)CO1 [Carfilzomib] (tested concentration range 0.1-1000 nM) | 17.1 | 17.5 | 16.7 | 27.2 | 13.3 | 22 | 27.5 | 20.3 | 18.9 | 15.9 | 31.5 |
| Cc1ccc(-c2cc(C(F)(F)F)nn2-c2ccc(S(N)(=O)=O)cc2)cc1 [Celecoxib] (tested concentration range 1-10000 nM) | 0 | 0 | 0 | 1.2 | 0 | 0 | 0 | 0 | 0 | 0 | 0 |
| C[C@@H]1COCCN1c1cc(C2([S@](C)(=N)=O)CC2)nc(-c2cc[nH]c3nccc2-3)n1 [Ceralasertib] (tested concentration range 2.5-25000 nM) | 6.7 | 6.6 | 6.3 | 10.7 | 8 | 7.8 | 10 | 8.1 | 9.3 | 6.2 | 13.9 |
| CCS(=O)(=O)N1CCN(c2ccc(Nc3ncc(C(N)=O)c(NC4CC4)n3)cc2)CC1 [Cerdulatinib] (tested concentration range 1-10000 nM) | 0 | 6.1 | 0.1 | 4.4 | 0 | 3.8 | 0 | 2.7 | 3.7 | 0.4 | 8.8 |
| Cc1cc(Nc2ncc(Cl)c(Nc3ccccc3S(=O)(=O)C(C)C)n2)c(OC(C)C)cc1C1CCNCC1 [Ceritinib] (tested concentration range 0.2-2500 nM) | 3 | 4.6 | 2.3 | 4.2 | 2.4 | 2.6 | 3.1 | 0.9 | 5.1 | 1.2 | 1 |
| CCN(CC)CCCC(C)Nc1ccnc2cc(Cl)ccc12 (stereo not given) [Chloroquine] (tested concentration range 10-100000 nM) | 8.4 | 5.7 | 8.6 | 9.8 | 8.6 | 7.4 | 11.2 | 9.5 | 9.8 | 8.2 | 10.4 |
| N.N.[Cl][Pt][Cl] [Cisplatin] (tested concentration range 10-100000 nM) | 5.7 | 11.8 | 4.8 | 5.6 | 5 | 14.6 | 15 | 11.4 | 18.1 | 4.3 | 16 |
| Nc1nc(Cl)nc2c1ncn2[C@H]1C[C@H](O)[C@@H](CO)O1 [Cladribine] (tested concentration range 0.1-1000 nM) | 0.5 | 0 | 0.6 | 5.2 | 0 | 0.1 | 1.7 | 3.9 | 2.7 | 0 | 5.1 |
| Nc1nc(Cl)nc2c1ncn2[C@@H]1O[C@H](CO)[C@@H](O)[C@@H]1F [Clofarabine] (tested concentration range 1-10000 nM) | 5 | 6.5 | 9.3 | 18.5 | 4.6 | 7.3 | 13.9 | 10.6 | 10.6 | 6.1 | 16.9 |
| CCN(CC)CCOc1ccc(C(=C(Cl)c2ccccc2)c2ccccc2)cc1 [Clomifene] (tested concentration range 1-10000 nM) | 4.2 | 2.3 | 3.7 | 4.8 | 4 | 3.7 | 5.7 | 6 | 5.8 | 4 | 5.5 |
| O=C(c1ccc(F)c(F)c1Nc1ccc(I)cc1F)N1CC(O)([C@@H]2CCCCN2)C1 [Cobimetinib] (tested concentration range 0.1-1000 nM) | 0 | 0.5 | 5.3 | 0 | 1.6 | 1.9 | 9.6 | 2.1 | 3.9 | 3.3 | 4.2 |
| COc1c(OCCCN2CCOCC2)ccc2c1N=C(NC(=O)c1cnc(N)nc1)N1CCN=C21 [Copanlisib] (tested concentration range 0.1-1000 nM) | 6 | 7.7 | 7.5 | 4.7 | 8.7 | 9.9 | 14.1 | 8.8 | 9.8 | 7 | 7.7 |
| CC1(COc2ccc3c(c2)ncn3-c2ccc3cccc(N4CCC(N)CC4)c3n2)COC1 [Crenolanib] (tested concentration range 1-10000 nM) | 7.5 | 8.9 | 3.5 | 4.4 | 3.2 | 9.3 | 4.9 | 4.7 | 7.3 | 7 | 7.2 |
| C[C@@H](Oc1cc(-c2cnn(C3CCNCC3)c2)cnc1N)c1c(Cl)ccc(F)c1Cl [Crizotinib] (tested concentration range 0.1-1000 nM) | 2.7 | 0 | 0.8 | 0 | 0 | 1.5 | 0 | 1.4 | 1.4 | 2.5 | 0.5 |
